Structures are written as SMILES.

The first experiment deals with σ1 receptor and the μ-opiod receptor. In words: μ and σ1 dual binding: combined class from the Ki of both radioligand assays. On the set-up: species or system human; key to μ and σ1 dual binding: +: Both Ki-μ and Ki-σ1>=500 nM; ++: One Ki<500 nM while the other Ki is >=500 nM; +++: Both Ki-μ and Ki-σ1<500 nM; ++++: Both Ki-μ and Ki-σ1<100 nM. Particulars: combined class for Ki-μ and Ki-σ1; transfected HEK-293 membranes (σ1), transfected CHO-K1 cell membranes (μ). The gist of the method:
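Classes combine both Ki values, split at 500 nM and 100 nM. Human μ-opioid binding used 1 nM [3H]-DAMGO on CHO-K1 membranes (27 °C, 60 min, pH 7.4, naloxone 10 μM for NSB); human σ1 used 5 nM [3H](+)-pentazocine on HEK-293 membranes (37 °C, 120 min, pH 8, haloperidol 10 μM for NSB).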
Take `CC(c1ccccn1)n1cc(CN2CCC(c3cccc(NS(C)(=O)=O)c3)CC2)nn1` (stereo not drawn) [Example 86, N-(3-(1-((1-(1-(pyridin-2-yl)ethyl)-1H-1,2,3-triazol-4-yl)methyl)piperidin-4-yl)phenyl)methanesulfonamide]: the “μ and σ1 dual binding” value is recorded as “++”. The same measure, in the same setting: under `CS(=O)(=O)Nc1cc(C2CCN(Cc3cn(Cc4ccccc4)nn3)CC2)ccc1F` [Example 90, N-(5-(1-((1-benzyl-1H-1,2,3-triazol-4-yl)methyl)piperidin-4-yl)-2-fluorophenyl)methanesulfonamide] stands “++”; under `CS(=O)(=O)Nc1cccc(C2CCN(Cc3cn([C@H]4c5ccccc5C[C@@H]4O)nn3)CC2)c1` [Example 91, N-(3-(1-((1-((1S,2S)-2-hydroxy-2,3-dihydro-1H-inden-1-yl)-1H-1,2,3-triazol-4-yl)methyl)piperidin-4-yl)phenyl)methanesulfonamide], “++”; under `CC1(n2cc(CN3CCC(c4cccc(O)c4)CC3)nn2)C(=O)Nc2ccccc21` (stereo not drawn) [Example 95, 3-(4-((4-(3-hydroxyphenyl)piperidin-1-yl)methyl)-1H-1,2,3-triazol-1-yl)-3-methylindolin-2-one], “++”. On the same count and under the same terms, under `CS(=O)(=O)Nc1cccc(C2CCN(Cc3cn([C@@H]4Cc5ccccc5[C@@H]4O)nn3)CC2)c1` [Example 97, N-(3-(1-((1-((1S,2R)-1-hydroxy-2,3-dihydro-1H-inden-2-yl)-1H-1,2,3-triazol-4-yl)methyl)piperidin-4-yl)phenyl)methanesulfonamide] stands “++”. Still for that read-out and setting: the entry for `CS(=O)(=O)Nc1cccc(C2CCN(Cc3cn(Cc4ccccn4)nn3)CC2)c1` [Example 98, N-(3-(1-((1-(pyridin-2-ylmethyl)-1H-1,2,3-triazol-4-yl)methyl)piperidin-4-yl)phenyl)methanesulfonamide] is “++”. Turning to `CS(=O)(=O)Nc1cccc(C2CCN(Cc3cn(Cc4cccnc4)nn3)CC2)c1` [Example 99, N-(3-(1-((1-(pyridin-3-ylmethyl)-1H-1,2,3-triazol-4-yl)methyl)piperidin-4-yl)phenyl)methanesulfonamide], the “μ and σ1 dual binding” value is listed as “++”.

On to `CS(=O)(=O)Nc1cccc(C2CCN(Cc3cn([C@@H]4Cc5ccccc5[C@H]4O)nn3)CC2)c1` [Example 100, N-(3-(1-((1-((1R,2R)-1-hydroxy-2,3-dihydro-1H-inden-2-yl)-1H-1,2,3-triazol-4-yl)methyl)piperidin-4-yl)phenyl)methanesulfonamide], for which the “μ and σ1 dual binding” value is “++”. For `COc1c(NS(C)(=O)=O)cccc1C1CCN(Cc2cn(Cc3ccccc3)nn2)CC1` [Example 102, N-(3-(1-((1-benzyl-1H-1,2,3-triazol-4-yl)methyl)piperidin-4-yl)-2-methoxyphenyl)methanesulfonamide], the “μ and σ1 dual binding” value is given as “++”. Consider `CCC(=O)Nc1cccc(C2CCN(Cc3cn(Cc4ccccn4)nn3)CC2)c1` [Example 103, N-(3-(1-((1-(pyridin-2-ylmethyl)-1H-1,2,3-triazol-4-yl)methyl)piperidin-4-yl)phenyl)propionamide], for which the “μ and σ1 dual binding” value was “++”. On to `CC(C)S(=O)(=O)Nc1cccc(C2CCN(Cc3cn([C@@H]4c5ccccc5C[C@H]4O)nn3)CC2)c1` [Example 104, N-(3-(1-((1-((1R,2R)-2-hydroxy-2,3-dihydro-1H-inden-1-yl)-1H-1,2,3-triazol-4-yl)methyl)piperidin-4-yl)phenyl)propane-2-sulfonamide], for which the “μ and σ1 dual binding” value is on record as “++”.

With `CC(C)S(=O)(=O)Nc1cccc(C2CCN(Cc3cn([C@H]4c5ccccc5C[C@@H]4O)nn3)CC2)c1` [Example 105, N-(3-(1-((1-((1S,2S)-2-hydroxy-2,3-dihydro-1H-inden-1-yl)-1H-1,2,3-triazol-4-yl)methyl)piperidin-4-yl)phenyl)propane-2-sulfonamide], the “μ and σ1 dual binding” value was “++”. For `CC(C)(O)COc1ccc(-n2cc(CN3CCC(c4cccc(O)c4)CC3)nn2)cc1` [Example 106, 3-(1-((1-(4-(2-hydroxy-2-methylpropoxy)phenyl)-1H-1,2,3-triazol-4-yl)methyl)piperidin-4-yl)phenol], the “μ and σ1 dual binding” value was “++”.

`CS(=O)(=O)Nc1cccc([C@@H]2CCN(Cc3cn(-c4ccccc4)nn3)C[C@@H]2O)c1` [Example 110, N-(3-((3R,4S)-3-hydroxy-1-((1-phenyl-1H-1,2,3-triazol-4-yl)methyl)piperidin-4-yl)phenyl)methanesulfonamide]: the “μ and σ1 dual binding” value is reported as “++”.

The experiment is the same for the next values; noted with them: transfected HEK-293 membranes (σ1), transfected CHO-K1 cell membranes (μ).
`Oc1cccc(C2CCN(Cc3cn(-c4ccccn4)nn3)CC2)c1` [Example 84, 3-(1-((1-(pyridin-2-yl)-1H-1,2,3-triazol-4-yl)methyl)piperidin-4-yl)phenol]: the Ki range for both μ and σ1 (dual-binding class) is < 100 nM. Regarding `c1ccc(-n2cc(CN3CCC(c4cccc(-c5nnn[nH]5)c4)CC3)nn2)cc1` [Example 85, 4-(3-(1H-tetrazol-5-yl)phenyl)-1-((1-phenyl-1H-1,2,3-triazol-4-yl)methyl)piperidine], the Ki range for both μ and σ1 (dual-binding class) is ≥ 500 nM.

With `CS(=O)(=O)Nc1ccc(F)c(C2CCN(Cc3cn(Cc4ccccc4)nn3)CC2)c1` [Example 87, N-(3-(1-((1-benzyl-1H-1,2,3-triazol-4-yl)methyl)piperidin-4-yl)-4-fluorophenyl)methanesulfonamide], the Ki range for both μ and σ1 (dual-binding class) was < 500 nM. On the same count and under the same terms, under `Oc1cccc(C2CCN(Cc3cn([C@@H]4c5ccccc5C[C@@H]4O)nn3)CC2)c1` [Example 88, (1R,2S)-1-(4-((4-(3-hydroxyphenyl)piperidin-1-yl)methyl)-1H-1,2,3-triazol-1-yl)-2,3-dihydro-1H-inden-2-ol] stands < 500 nM; under `Oc1cccc(C2CCN(Cc3cn(-c4coc5ccccc45)nn3)CC2)c1` [Example 89, 3-(1-((1-(benzofuran-3-yl)-1H-1,2,3-triazol-4-yl)methyl)piperidin-4-yl)phenol], < 100 nM; under `CS(=O)(=O)Nc1cccc(C2CCN(Cc3cn([C@@H]4c5ccccc5C[C@H]4O)nn3)CC2)c1` [Example 92, N-(3-(1-((1-((1R,2R)-2-hydroxy-2,3-dihydro-1H-inden-1-yl)-1H-1,2,3-triazol-4-yl)methyl)piperidin-4-yl)phenyl)methanesulfonamide], < 500 nM. Still for that read-out and setting: the figure for `Nc1cccc(C2CCN(Cc3cn(-c4ccccc4)nn3)CC2)c1` [Example 94, 3-(1-((1-phenyl-1H-1,2,3-triazol-4-yl)methyl)piperidin-4-yl)aniline] is < 100 nM; for `Oc1cccc(C2CCN(Cc3cn([C@@H]4Cc5ccccc5[C@@H]4O)nn3)CC2)c1` [Example 96, (1S,2R)-2-(4-((4-(3-hydroxyphenyl)piperidin-1-yl)methyl)-1H-1,2,3-triazol-1-yl)-2,3-dihydro-1H-inden-1-ol] it is < 500 nM; for `COc1c(NS(C)(=O)=O)cccc1C1CCN(Cc2cn(-c3ccccc3)nn2)CC1` [Example 101, N-(2-methoxy-3-(1-((1-phenyl-1H-1,2,3-triazol-4-yl)methyl)piperidin-4-yl)phenyl)methanesulfonamide] it is < 500 nM.

Turning to `Oc1ccc(-n2cc(CN3CCC(c4cccc(O)c4)CC3)nn2)cc1` [Example 107, 3-(1-((1-(4-hydroxyphenyl)-1H-1,2,3-triazol-4-yl)methyl)piperidin-4-yl)phenol], the Ki range for both μ and σ1 (dual-binding class) was < 100 nM.

For the origin of these results see US9981942B2, “Piperidine derivatives having multimodal activity against pain” (LABORATORIOS DEL DR. ESTEVE S.A., priority 2013, dated 2018).
